Reference: publication PMC12040169 (PLOS Biology, 2025)

experiment: in vitro; settings: human, hela cells, % viability

Structure (SMILES) | viability at 28.5 h, 10 µM
CCn1cc(C(=O)NN)c(=O)c2cc(F)c(N3CCSCC3)cc21 [CBK307148] | 98.8%
O=c1ccc2ccc(-c3cccc(C(F)(F)F)c3)nc2[nH]1 [CBK073717] | 83.7%
O=C1Cc2c(ccc3ccccc23)C2(CCN(CCCC(F)(F)F)CC2)N1 [CBK039912] | 89.6%
CC1CCCN(C(=S)NC2CC3CCC2C3)C1 (centres unmarked) [CBK085999] | 92.7%
CCCSc1ncc(Cl)c(C(=O)Nc2ccc(C(=O)OC)cc2)n1 [CBK268824] | 102%
Nc1ncc(-c2ccc(-c3ccccc3F)cc2)c2cccnc12 [CBK067597] | 76.5%
Cn1ccnc1C1(O)CC2CCC(C1)N2C(=O)c1ccccc1F (centres unmarked) [CBK284085] | 87.4%
O=C(O)c1ccc(COc2ccccc2/C=N/O)cc1 [CBK288481] | 108%
Cc1ncsc1CCOc1cc(C(F)(F)F)ccn1 [CBK115785] | 100%
N#CCSc1nnc(NC(=O)Nc2ccccc2)s1 [CBK028792] | 85.3%
CN(C)CCP(=O)(c1ccccc1)c1ccccc1 [CBK026596] | 109%
COc1ccc(-c2cncc(N(C)CCN(C)C)n2)cc1 [CBK037832] | 101%
COc1cc(Nc2nc(-c3ccccc3F)cn3ccnc23)cc(OC)c1OC [CBK037301] | 98.9%
Cc1nc(S(=O)(=O)CCn2cccn2)n(C2CCCC2)c1C [CBK305138] | 89%
O=S(=O)(/C=C/c1ccccc1)Nc1cccc2cc[nH]c12 [CBK155788] | 82.7%
COc1ccc(-c2nnc(NC(=O)C3CCCCC3)o2)cc1 [CBK287592] | 83.3%
O=C(C1=C(O)C(=O)N(Cc2cccnc2)C1c1cccnc1)c1ccccc1 (centres unmarked) [CBK264522] | 99.5%
O=C(Nc1ccccc1)[C@H]1O[C@H](CCN2CCN(c3ccccn3)CC2)CC[C@@H]1O [CBK288726] | 87.9%
Clc1ccc(-c2cc(N3CCN(c4ccccn4)CC3)ncn2)cc1 [CBK091085] | 112%
C[C@@H]1CN(C(=O)c2n[nH]c3ccccc23)C[C@H](C)O1 [CBK200232] | 98.6%
Cc1cc(Cl)cc(Cl)c1S(=O)(=O)Nc1nc(-c2cccc([N+](=O)[O-])c2)cs1 [CBK000902] | 111%
CCOc1ccc(CN2CCN(CCCc3ccccc3)CC2)cc1 [CBK264153G] | 92.7%

Structure (SMILES) | viability at 28.5 h, 10 µM
CN(C)Cc1ccc(C(=O)NCC(C)(C)N2CCCCC2)cc1 [CBK281865] | 104%
O=C(CN1CCC(Cc2ccccc2)CC1)Nc1ccc(S(=O)(=O)N2CCOCC2)cc1 [CBK268451] | 102%
O=C(C1CCCO1)N1CCCCCC1c1cc(-c2cccs2)on1 (centres unmarked) [CBK284340] | 97.6%
Cc1ccn2c(=O)c(C(=O)NCc3cccnc3N3CCOCC3)cnc2c1 [CBK298316] | 86.1%
CCNC(=S)N[C@H]1CC[C@@]2(Cc3ccc(OC)cc3)CCN(C)[C@H]2C1 [CBK004257] | 101%
COc1cc(C)c(S(=O)(=O)Nc2ccc(CC(=O)O)cc2)cc1C [CBK299782] | 101%
CN1C(=O)CN(C2CCCCC2)C1=O [CBK116320] | 82.3%
N#CC(c1ccc(O)cc1)N1CCCCC1 (centres unmarked) [CBK028556] | 94.4%
CCC(O)Cn1nc(CCSC)nc1-c1ccc2[nH]ccc2c1 (centres unmarked) [CBK307526] | 104%
COc1ccc(-c2ccc3c(c2)COC2(CCCNC2)O3)c(OC)c1 (centres unmarked) [CBK105316] | 103%
COc1ccc(Nc2cccc(-c3ccc(CCC(=O)O)cc3)n2)cc1 [CBK036943] | 106%
CC(NC(=O)c1ccc(-c2ccccc2F)s1)C(=O)N1CCCCC1 (centres unmarked) [CBK305740] | 91.3%
CCn1c(CNC(=O)C(C)Cn2cc(Cl)cn2)nc2ccccc21 (centres unmarked) [CBK281392] | 91.9%
Cn1cc2c(n1)CC1CCC2N1C(=O)c1ccc(F)c(F)c1 (centres unmarked) [CBK281691] | 92.6%
N=C(N)CCCOc1ccccc1-c1ccccc1 [CBK058057] | 100%
CCC(c1ccc(F)cc1)n1cncc1-c1cnn(C)c1 (centres unmarked) [CBK281883] | 95.7%
O=C(NCCc1ccccc1)c1c(NC(=O)C2COc3ccccc3O2)sc2c1CCCC2 (centres unmarked) [CBK265522] | 89.8%
O=[N+]([O-])c1ccc(OCC(O)CN2CCCN(c3nc4ccc(Cl)cc4s3)CC2)cc1 (centres unmarked) [CBK074647] | 85.9%
COc1ccc(NC(=O)N2CCCCC2c2cccnc2)cc1 (centres unmarked) [CBK293947] | 102%
O=C(CSc1nn2cnnc2s1)Nc1ccc(I)cc1 [CBK268913] | 88.2%
Sc1nnc(-c2ccncc2)n1/N=C/c1cccnc1 [CBK265336] | 96.6%
N#C/C(=C\C=C\c1ccc([N+](=O)[O-])cc1)c1nc(-c2cc3cc([N+](=O)[O-])ccc3oc2=O)cs1 [CBK262357] | 93.7%
